Results as given in ChEMBL document CHEMBL1147767, “Synthesis and biological evaluation of biphenylsulfonamide carboxylate aggrecanase-1 inhibitors” (Bioorg Med Chem Lett, 2006).
Calls of active or inactive are those of the source. The calls are words filed in the database; no cut-off is given here.

What was measured:
[1] = target: T1, A disintegrin and metalloproteinase with thrombospondin motifs 4 (Homo sapiens, UniProt O75173)
T1 sequence (O75173 whole entry): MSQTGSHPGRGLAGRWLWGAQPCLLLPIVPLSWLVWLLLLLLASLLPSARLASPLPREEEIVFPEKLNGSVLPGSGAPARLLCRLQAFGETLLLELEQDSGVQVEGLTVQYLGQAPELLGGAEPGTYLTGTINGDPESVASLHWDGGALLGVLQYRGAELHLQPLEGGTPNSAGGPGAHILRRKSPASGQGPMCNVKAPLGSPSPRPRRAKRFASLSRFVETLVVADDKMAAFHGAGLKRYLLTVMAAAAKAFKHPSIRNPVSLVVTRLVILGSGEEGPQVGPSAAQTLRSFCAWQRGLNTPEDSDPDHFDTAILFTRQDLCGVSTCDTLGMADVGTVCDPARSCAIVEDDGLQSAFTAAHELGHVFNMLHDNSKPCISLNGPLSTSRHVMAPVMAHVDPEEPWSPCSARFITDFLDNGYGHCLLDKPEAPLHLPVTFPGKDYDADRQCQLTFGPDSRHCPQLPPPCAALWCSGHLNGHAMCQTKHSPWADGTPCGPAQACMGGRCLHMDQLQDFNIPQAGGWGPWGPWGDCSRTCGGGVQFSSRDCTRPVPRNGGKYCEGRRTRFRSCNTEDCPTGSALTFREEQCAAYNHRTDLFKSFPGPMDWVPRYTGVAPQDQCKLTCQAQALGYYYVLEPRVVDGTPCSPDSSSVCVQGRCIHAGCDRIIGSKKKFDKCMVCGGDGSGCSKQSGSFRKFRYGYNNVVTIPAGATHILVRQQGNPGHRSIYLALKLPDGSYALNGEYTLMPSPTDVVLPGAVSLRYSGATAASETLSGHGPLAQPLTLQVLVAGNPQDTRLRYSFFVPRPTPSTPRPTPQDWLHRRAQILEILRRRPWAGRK

[2] = target: T2, A disintegrin and metalloproteinase with thrombospondin motifs 4 (Homo sapiens) (UniProt O75173); experiment: Inhibitory activity against human Aggrecanase 1
T2 sequence (whole entry): T1 sequence (O75173 whole entry)

[3] = Oral bioavailability in male Sprague-Dawley rats; format: ADME, organism-based; conditions: rat, in vivo
[4] = target: 72 kDa type IV collagenase (Homo sapiens, UniProt P08253); experiment: Inhibitory activity against MMP2
Sequence of 72 kDa type IV collagenase (P08253 whole entry): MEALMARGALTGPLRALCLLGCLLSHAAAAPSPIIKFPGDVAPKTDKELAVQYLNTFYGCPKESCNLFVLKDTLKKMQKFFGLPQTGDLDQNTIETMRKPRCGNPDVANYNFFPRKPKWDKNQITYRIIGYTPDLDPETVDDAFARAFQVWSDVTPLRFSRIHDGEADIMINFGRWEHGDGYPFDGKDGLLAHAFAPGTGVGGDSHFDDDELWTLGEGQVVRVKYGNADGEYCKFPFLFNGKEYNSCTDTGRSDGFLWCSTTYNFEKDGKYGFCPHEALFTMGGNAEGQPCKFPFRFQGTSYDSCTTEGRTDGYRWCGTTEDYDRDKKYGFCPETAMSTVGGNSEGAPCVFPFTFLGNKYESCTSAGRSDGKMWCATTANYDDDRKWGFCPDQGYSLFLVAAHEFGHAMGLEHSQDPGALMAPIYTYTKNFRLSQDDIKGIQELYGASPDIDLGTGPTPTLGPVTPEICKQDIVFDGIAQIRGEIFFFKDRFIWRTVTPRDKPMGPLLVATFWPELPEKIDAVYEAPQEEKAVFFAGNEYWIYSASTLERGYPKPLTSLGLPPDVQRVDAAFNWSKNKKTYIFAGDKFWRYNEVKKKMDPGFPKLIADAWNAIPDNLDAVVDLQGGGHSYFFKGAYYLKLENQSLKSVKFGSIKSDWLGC

[5] = Clearance in male Sprague-Dawley rats; format: ADME, organism-based; conditions: rat, in vivo
Collagenase 3 = Collagenase 3 (Homo sapiens, UniProt P45452)
Interstitial collagenase = target: T3, Interstitial collagenase (Homo sapiens, UniProt P03956); experiment: Inhibitory activity against MMP1
T3 sequence (P03956 whole entry): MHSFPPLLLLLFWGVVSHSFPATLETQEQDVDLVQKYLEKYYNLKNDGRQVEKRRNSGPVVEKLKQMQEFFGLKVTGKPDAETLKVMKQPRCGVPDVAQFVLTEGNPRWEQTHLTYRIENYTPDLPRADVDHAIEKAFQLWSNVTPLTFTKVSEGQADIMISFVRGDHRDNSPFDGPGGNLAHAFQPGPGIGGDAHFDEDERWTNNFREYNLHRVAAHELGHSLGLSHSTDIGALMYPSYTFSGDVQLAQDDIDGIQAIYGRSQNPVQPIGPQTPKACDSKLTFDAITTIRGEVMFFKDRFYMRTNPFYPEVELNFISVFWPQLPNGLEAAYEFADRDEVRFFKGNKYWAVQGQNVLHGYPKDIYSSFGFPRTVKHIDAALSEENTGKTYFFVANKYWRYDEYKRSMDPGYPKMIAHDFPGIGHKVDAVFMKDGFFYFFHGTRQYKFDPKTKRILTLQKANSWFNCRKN

[6] = Cmax in male Sprague-Dawley rats; format: ADME, organism-based; conditions: rat, in vivo
[7] = Half life in male Sprague-Dawley rats; format: ADME, organism-based; conditions: rat, in vivo
[8] = target: Matrix metalloproteinase-14 (Homo sapiens, UniProt P50281); experiment: Inhibitory activity against MMP14
[9] = target: T4, A disintegrin and metalloproteinase with thrombospondin motifs 4 (Bos taurus) (UniProt Q9TT93); experiment: Inhibition of IL1induced proteoglycan degradation in bovine cartilage, 3 day incubation at 10 ug/mL; format: functional
T4 sequence (whole entry): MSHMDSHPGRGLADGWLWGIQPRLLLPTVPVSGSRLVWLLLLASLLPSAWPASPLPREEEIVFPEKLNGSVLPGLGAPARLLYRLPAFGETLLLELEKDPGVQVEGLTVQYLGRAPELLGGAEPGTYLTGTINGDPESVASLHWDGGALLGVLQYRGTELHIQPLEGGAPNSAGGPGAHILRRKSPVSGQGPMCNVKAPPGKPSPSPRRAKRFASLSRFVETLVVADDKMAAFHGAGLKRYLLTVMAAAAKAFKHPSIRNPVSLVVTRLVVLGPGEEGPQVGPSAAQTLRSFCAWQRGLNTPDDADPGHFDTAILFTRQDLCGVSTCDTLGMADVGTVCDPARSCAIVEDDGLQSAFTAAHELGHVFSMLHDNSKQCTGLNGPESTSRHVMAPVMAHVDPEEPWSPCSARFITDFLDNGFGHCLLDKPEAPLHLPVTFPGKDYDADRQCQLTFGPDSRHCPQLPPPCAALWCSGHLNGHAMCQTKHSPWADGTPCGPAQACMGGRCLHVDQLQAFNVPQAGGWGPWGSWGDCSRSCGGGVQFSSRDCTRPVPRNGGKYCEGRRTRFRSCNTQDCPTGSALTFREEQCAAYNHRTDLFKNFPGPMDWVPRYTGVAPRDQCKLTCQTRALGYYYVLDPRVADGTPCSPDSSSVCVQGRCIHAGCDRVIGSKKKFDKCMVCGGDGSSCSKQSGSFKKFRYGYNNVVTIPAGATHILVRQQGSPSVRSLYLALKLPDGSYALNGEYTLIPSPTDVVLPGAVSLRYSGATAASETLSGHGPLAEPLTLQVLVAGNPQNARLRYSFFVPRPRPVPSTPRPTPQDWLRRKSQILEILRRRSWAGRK

Row | IC50 [1] [µM] | Compound | also measured
1 | 100 | CC(C)C(CC(=O)O)NS(=O)(=O)c1ccc(-c2ccccc2)cc1 (stereo unspecified) | 
2 |  | COc1ccc(S(=O)(=O)N(Cc2cccnc2)C(C(=O)NO)C(C)C)cc1 (single isomer, unassigned) | inhibition [2]: inactive
3 | 30 | CC(C)[C@@H](NS(=O)(=O)c1ccc(-c2ccccc2)c(N)c1)C(=O)O | 
4 | 50 | CC(C)[C@@H](NS(=O)(=O)c1ccc(-c2ccccc2[N+](=O)[O-])cc1)C(=O)O | 
5 | 5.5 | C[C@@H](NS(=O)(=O)c1ccc(-c2ccccc2)cc1)C(=O)O | 
6 | 1.6 | CC(C)[C@H](C(=O)O)N(C)S(=O)(=O)c1ccc(-c2ccccc2)cc1 | 
7 | 3 | CC(C)[C@@H](NS(=O)(=O)c1ccc(-c2ccccc2)cc1)C(=O)O | 
8 | 4.3 | O=C(O)[C@@H](Cc1ccccc1)NS(=O)(=O)c1ccc(-c2ccccc2)cc1 | 
9 | 2.8 | O=C(O)[C@@H](Cc1cc2ccccc2[nH]1)NS(=O)(=O)c1ccc(-c2ccccc2)cc1 | 
10 | > 100 | CC(C)[C@@H](NS(=O)(=O)c1cccc(-c2ccccc2)c1)C(=O)O | 
11 | 3.8 | CC(C)[C@@H](NS(=O)(=O)c1ccc(-c2ccc(CC(=O)c3cc4ccccc4o3)cc2)cc1)C(=O)O | 
12 | 1.4 | CC(C)[C@@H](NS(=O)(=O)c1ccc(-c2ccc(OCc3cc4ccccc4o3)cc2)cc1)C(=O)O | 
13 | 0.35 | CC(C)[C@@H](NS(=O)(=O)c1ccc(-c2ccc(OC(=O)c3cc4ccccc4o3)cc2)cc1)C(=O)O | 
14 | 7.5 | CC(C)[C@@H](NS(=O)(=O)c1ccc(-c2ccc(NC(=O)c3cc4ccccc4o3)cc2)cc1)C(=O)O | 
15 |  | COc1ccc(S(=O)(=O)N(Cc2cccnc2)[C@@H](C(=O)NO)C(C)C)cc1 | inhibition ([2]; concentration not given here): 92%
16 | 12 | CC(C)[C@H](C(=O)O)N(Cc1cccnc1)S(=O)(=O)c1ccc(-c2ccccc2)cc1 | 
17 | 1.1 | O=C(O)CC[C@@H](NS(=O)(=O)c1ccc(-c2ccccc2)cc1)C(=O)O | 
18 | 20 | CC(C)[C@@H](NS(=O)(=O)c1ccc(-c2ccccc2O)cc1)C(=O)O | 
19 | > 100 | CC(C)[C@H](NS(=O)(=O)c1ccc(-c2ccccc2)cc1)C(=O)O | 
20 | 0.086 | Cc1c(C(=O)Oc2ccc(-c3ccc(S(=O)(=O)N[C@@H](C(=O)O)C(C)C)cc3)cc2)oc2ccccc12 | 
21 | 0.4 | CC(C)[C@@H](NS(=O)(=O)c1ccc(-c2ccc(/C=C/c3cc4ccccc4o3)cc2)cc1)C(=O)O | 

Row | Compound | IC50 [1] [µM] | also measured
22 | Cc1c(COc2ccc(-c3ccc(S(=O)(=O)N[C@H](Cc4ccccc4)C(=O)O)cc3)cc2)oc2ccccc12 | 0.7 | bioavailability [3]: 35%; IC50 [4]: 0.028 µM; clearance [5]: 0.966 L/h/kg; IC50 (Collagenase 3): 0.0044 µM; IC50 (Interstitial collagenase): > 100 µM; Cmax [6]: 1.36 µg/mL; half-life [7]: 4.62 h; IC50 [8]: 3 µM; inhibition [9]: 89%
